Measured values reported in ChEMBL document CHEMBL5346903, “Discovery of novel and bioavailable histone deacetylases and cyclin-dependent kinases dual inhibitor to impair the stemness of leukemia cells” (Eur J Med Chem, 2023).

What was measured:
[1] = system: U-937; assay: Antiproliferative activity against human U-937 cells incubated for 72 hrs by CCK8 assay; type: functional, cell-based; details: U-937, 72 h
[2] = system: HL-60; assay: Antiproliferative activity against human HL-60 cells incubated for 72 hrs by CCK8 assay; type: functional, cell-based; details: HL-60, 72 h
[3] = Antiproliferative activity against human SKNO-1 cells incubated for 72 hrs by CCK8 assay; type: functional, cell-based; details: SKNO-1, 72 h
[4] = system: Kasumi 1; assay: Antiproliferative activity against human Kasumi 1 cells incubated for 72 hrs by CCK8 assay; type: functional, cell-based; details: Kasumi 1, 72 h
[5] = system: Kasumi 1; assay: Synergistic antiproliferative activity against human Kasumi 1 cells assessed as combination index incubated for 72 hrs in presence of Chidamide by CCK-8 assay; type: functional
[6] = target: CDK1/Cyclin A (Homo sapiens) (UniProt P06493+P20248); assay: Inhibition of CDK1/cyclinA2 (unknown origin) at 100 nM preincubated for 20 mins followed by [gamma-33P]ATP addition measured after 120 mins in presence of ATP by Hot-SpotSM kinase assay relative to control; type: protein-complex assay; details: time 140.0 min
[7] = target: Cyclin-dependent kinase 1/cyclin B1 (Homo sapiens) (UniProt P06493+P14635); assay: Inhibition of CDK1/cyclinB1 (unknown origin) at 100 nM preincubated for 20 mins followed by [gamma-33P]ATP addition measured after 120 mins in presence of ATP by Hot-SpotSM kinase assay relative to control; type: protein-complex assay; details: time 140.0 min
[8] = target: CDK1/Cyclin E (Homo sapiens) (UniProt P06493+P24864); assay: Inhibition of CDK1/cyclinE1 (unknown origin) at 100 nM preincubated for 20 mins followed by [gamma-33P]ATP addition measured after 120 mins in presence of ATP by Hot-SpotSM kinase assay relative to control; type: protein-complex assay; details: time 140.0 min
[9] = target: CDK3/Cyclin E (Homo sapiens) (UniProt P24864+Q00526); assay: Inhibition of CDK3/cyclinE1 (unknown origin) at 100 nM preincubated for 20 mins followed by [gamma-33P]ATP addition measured after 120 mins in presence of ATP by Hot-SpotSM kinase assay relative to control; type: protein-complex assay; details: time 140.0 min
[10] = target: Cyclin-dependent kinase 4/cyclin D1 (Homo sapiens) (UniProt P11802+P24385); assay: Inhibition of CDK4/cyclinD1 (unknown origin) at 100 nM preincubated for 20 mins followed by [gamma-33P]ATP addition measured after 120 mins in presence of ATP by Hot-SpotSM kinase assay relative to control; type: protein-complex assay; details: time 140.0 min
[11] = target: CDK4/Cyclin D3 (Homo sapiens) (UniProt P11802+P30281); assay: Inhibition of CDK4/cyclinD3 (unknown origin) at 100 nM preincubated for 20 mins followed by [gamma-33P]ATP addition measured after 120 mins in presence of ATP by Hot-SpotSM kinase assay relative to control; type: protein-complex assay; details: time 140.0 min
[12] = target: T1, Cyclin-dependent kinase 5/CDK5 activator 1 (Homo sapiens) (UniProt Q00535+Q15078); assay: Inhibition of CDK5/p25NCK (unknown origin) at 100 nM preincubated for 20 mins followed by [gamma-33P]ATP addition measured after 120 mins in presence of ATP by Hot-SpotSM kinase assay relative to control; type: protein-complex assay; details: time 140.0 min
[13] = target: T1, Cyclin-dependent kinase 5/CDK5 activator 1 (Homo sapiens); assay: Inhibition of CDK5/p35NCK (unknown origin) at 100 nM preincubated for 20 mins followed by [gamma-33P]ATP addition measured after 120 mins in presence of ATP by Hot-SpotSM kinase assay relative to control; type: protein-complex assay; details: time 140.0 min
[14] = target: CDK6/cyclin D1 (Homo sapiens) (UniProt P24385+Q00534); assay: Inhibition of CDK6/cyclinD1 (unknown origin) at 100 nM preincubated for 20 mins followed by [gamma-33P]ATP addition measured after 120 mins in presence of ATP by Hot-SpotSM kinase assay relative to control; type: protein-complex assay; details: time 140.0 min
[15] = target: CDK6/cyclin D3 (Homo sapiens) (UniProt P30281+Q00534); assay: Inhibition of CDK6/cyclinD3 (unknown origin) at 100 nM preincubated for 20 mins followed by [gamma-33P]ATP addition measured after 120 mins in presence of ATP by Hot-SpotSM kinase assay relative to control; type: protein-complex assay; details: time 140.0 min
[16] = target: CDK12/Cyclin K (Homo sapiens) (UniProt O75909+Q9NYV4); assay: Inhibition of CDK12/cyclinK (unknown origin) at 100 nM preincubated for 20 mins followed by [gamma-33P]ATP addition measured after 120 mins in presence of ATP by Hot-SpotSM kinase assay relative to control; type: protein-complex assay; details: time 140.0 min
[17] = target: Cyclin-dependent kinase 13/Cyclin-K (Homo sapiens) (UniProt Q14004+O75909); assay: Inhibition of CDK13/cyclinK (unknown origin) at 100 nM preincubated for 20 mins followed by [gamma-33P]ATP addition measured after 120 mins in presence of ATP by Hot-SpotSM kinase assay relative to control; type: protein-complex assay; details: time 140.0 min
[18] = target: Cyclin-C/Cyclin-dependent kinase 19 (Homo sapiens) (UniProt Q9BWU1+P24863); assay: Inhibition of CDK19/cyclinC (unknown origin) at 100 nM preincubated for 20 mins followed by [gamma-33P]ATP addition measured after 120 mins in presence of ATP by Hot-SpotSM kinase assay relative to control; type: protein-complex assay; details: time 140.0 min

T1 sequence (Q00535 whole entry): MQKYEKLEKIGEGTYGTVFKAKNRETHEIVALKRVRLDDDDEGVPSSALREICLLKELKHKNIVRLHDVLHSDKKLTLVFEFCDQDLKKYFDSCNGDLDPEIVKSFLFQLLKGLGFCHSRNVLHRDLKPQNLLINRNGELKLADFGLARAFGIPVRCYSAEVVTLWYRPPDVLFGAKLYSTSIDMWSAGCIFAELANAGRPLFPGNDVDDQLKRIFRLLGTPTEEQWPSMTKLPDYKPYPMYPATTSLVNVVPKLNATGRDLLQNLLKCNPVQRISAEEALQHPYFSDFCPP
T1 sequence (Q15078 99-307 partner limits assumed): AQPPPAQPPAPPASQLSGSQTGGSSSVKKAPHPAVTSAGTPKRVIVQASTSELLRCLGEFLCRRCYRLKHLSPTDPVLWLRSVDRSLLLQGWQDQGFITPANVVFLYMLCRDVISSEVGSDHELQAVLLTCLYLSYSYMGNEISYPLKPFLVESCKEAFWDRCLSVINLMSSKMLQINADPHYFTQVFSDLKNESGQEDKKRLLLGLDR
CDK3/Cyclin E (Homo sapiens), sequence (P24864 whole entry, looked up): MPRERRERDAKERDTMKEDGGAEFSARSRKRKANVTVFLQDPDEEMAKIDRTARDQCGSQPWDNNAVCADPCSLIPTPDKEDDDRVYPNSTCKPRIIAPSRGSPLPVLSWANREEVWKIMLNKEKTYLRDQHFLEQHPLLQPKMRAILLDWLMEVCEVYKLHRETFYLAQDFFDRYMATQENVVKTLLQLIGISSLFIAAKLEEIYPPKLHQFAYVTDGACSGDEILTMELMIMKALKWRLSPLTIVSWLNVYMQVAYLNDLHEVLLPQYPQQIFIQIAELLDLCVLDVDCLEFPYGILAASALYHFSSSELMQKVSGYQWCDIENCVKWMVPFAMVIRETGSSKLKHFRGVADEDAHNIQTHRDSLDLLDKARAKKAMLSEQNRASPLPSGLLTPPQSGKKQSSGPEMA
CDK3/Cyclin E (Homo sapiens), sequence (Q00526 whole entry, looked up): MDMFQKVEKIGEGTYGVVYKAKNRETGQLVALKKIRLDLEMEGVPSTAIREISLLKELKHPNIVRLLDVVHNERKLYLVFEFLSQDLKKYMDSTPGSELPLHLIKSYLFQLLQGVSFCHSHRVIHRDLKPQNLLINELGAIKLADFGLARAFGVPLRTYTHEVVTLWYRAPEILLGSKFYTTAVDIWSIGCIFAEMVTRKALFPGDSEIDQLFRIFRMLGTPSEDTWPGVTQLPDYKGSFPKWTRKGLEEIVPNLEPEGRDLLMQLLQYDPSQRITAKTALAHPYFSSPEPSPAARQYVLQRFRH
CDK12/Cyclin K (Homo sapiens), sequence (O75909 whole entry, looked up): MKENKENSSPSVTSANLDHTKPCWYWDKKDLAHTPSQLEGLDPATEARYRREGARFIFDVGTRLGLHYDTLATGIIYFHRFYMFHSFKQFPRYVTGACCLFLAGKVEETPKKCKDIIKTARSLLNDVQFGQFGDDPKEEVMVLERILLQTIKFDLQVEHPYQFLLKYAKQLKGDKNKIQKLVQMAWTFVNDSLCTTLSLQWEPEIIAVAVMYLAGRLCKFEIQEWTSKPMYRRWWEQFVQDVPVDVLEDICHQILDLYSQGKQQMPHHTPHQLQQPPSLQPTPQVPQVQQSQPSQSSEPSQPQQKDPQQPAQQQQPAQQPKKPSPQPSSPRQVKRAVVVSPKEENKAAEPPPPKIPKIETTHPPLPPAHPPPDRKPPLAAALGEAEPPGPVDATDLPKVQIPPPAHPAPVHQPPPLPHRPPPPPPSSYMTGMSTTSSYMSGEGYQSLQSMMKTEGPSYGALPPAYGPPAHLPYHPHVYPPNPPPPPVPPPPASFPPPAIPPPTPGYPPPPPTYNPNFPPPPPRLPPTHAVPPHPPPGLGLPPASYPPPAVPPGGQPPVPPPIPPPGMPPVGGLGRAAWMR
CDK12/Cyclin K (Homo sapiens), sequence (Q9NYV4 whole entry, looked up): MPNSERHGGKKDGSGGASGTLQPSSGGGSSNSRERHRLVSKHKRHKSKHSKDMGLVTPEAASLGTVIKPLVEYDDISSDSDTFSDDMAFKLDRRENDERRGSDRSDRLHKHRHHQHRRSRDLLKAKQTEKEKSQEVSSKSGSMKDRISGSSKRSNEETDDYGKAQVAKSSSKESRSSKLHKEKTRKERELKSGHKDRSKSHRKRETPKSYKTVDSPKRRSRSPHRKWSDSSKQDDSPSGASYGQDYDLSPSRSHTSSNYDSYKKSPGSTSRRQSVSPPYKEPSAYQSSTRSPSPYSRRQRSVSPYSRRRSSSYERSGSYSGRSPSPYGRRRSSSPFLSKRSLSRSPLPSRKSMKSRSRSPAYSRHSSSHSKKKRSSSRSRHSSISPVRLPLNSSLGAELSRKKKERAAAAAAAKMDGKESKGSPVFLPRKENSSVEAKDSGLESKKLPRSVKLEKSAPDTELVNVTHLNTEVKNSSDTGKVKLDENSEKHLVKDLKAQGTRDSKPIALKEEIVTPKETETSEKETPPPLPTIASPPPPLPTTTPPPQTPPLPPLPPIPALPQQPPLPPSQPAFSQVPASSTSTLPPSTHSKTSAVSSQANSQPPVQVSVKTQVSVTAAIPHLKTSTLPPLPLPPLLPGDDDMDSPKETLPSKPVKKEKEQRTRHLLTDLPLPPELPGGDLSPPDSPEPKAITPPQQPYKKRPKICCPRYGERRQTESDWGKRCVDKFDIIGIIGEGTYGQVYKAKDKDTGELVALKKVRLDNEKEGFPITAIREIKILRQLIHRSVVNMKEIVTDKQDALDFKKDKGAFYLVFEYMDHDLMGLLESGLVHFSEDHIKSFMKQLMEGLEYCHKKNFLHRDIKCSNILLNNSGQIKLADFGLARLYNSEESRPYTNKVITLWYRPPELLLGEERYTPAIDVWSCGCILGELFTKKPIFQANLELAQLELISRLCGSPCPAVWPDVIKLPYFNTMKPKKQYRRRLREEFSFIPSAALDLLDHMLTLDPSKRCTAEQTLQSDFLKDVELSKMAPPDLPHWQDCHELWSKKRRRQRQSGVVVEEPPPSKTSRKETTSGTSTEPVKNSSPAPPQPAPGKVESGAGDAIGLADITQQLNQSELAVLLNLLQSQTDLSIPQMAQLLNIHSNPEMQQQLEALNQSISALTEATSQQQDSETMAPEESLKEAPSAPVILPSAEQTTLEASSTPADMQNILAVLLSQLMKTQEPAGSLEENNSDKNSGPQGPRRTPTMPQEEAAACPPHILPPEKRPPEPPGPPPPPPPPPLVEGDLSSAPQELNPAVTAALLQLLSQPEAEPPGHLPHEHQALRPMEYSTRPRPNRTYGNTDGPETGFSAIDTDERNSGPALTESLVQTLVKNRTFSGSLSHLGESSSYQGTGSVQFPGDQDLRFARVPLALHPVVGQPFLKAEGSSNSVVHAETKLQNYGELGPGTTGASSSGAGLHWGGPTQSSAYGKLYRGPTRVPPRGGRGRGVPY
Cyclin-dependent kinase 13/Cyclin-K (Homo sapiens), sequence (O75909 whole entry, looked up): as the sequence (O75909 whole entry, looked up) above
Cyclin-dependent kinase 13/Cyclin-K (Homo sapiens), sequence (Q14004 whole entry, looked up): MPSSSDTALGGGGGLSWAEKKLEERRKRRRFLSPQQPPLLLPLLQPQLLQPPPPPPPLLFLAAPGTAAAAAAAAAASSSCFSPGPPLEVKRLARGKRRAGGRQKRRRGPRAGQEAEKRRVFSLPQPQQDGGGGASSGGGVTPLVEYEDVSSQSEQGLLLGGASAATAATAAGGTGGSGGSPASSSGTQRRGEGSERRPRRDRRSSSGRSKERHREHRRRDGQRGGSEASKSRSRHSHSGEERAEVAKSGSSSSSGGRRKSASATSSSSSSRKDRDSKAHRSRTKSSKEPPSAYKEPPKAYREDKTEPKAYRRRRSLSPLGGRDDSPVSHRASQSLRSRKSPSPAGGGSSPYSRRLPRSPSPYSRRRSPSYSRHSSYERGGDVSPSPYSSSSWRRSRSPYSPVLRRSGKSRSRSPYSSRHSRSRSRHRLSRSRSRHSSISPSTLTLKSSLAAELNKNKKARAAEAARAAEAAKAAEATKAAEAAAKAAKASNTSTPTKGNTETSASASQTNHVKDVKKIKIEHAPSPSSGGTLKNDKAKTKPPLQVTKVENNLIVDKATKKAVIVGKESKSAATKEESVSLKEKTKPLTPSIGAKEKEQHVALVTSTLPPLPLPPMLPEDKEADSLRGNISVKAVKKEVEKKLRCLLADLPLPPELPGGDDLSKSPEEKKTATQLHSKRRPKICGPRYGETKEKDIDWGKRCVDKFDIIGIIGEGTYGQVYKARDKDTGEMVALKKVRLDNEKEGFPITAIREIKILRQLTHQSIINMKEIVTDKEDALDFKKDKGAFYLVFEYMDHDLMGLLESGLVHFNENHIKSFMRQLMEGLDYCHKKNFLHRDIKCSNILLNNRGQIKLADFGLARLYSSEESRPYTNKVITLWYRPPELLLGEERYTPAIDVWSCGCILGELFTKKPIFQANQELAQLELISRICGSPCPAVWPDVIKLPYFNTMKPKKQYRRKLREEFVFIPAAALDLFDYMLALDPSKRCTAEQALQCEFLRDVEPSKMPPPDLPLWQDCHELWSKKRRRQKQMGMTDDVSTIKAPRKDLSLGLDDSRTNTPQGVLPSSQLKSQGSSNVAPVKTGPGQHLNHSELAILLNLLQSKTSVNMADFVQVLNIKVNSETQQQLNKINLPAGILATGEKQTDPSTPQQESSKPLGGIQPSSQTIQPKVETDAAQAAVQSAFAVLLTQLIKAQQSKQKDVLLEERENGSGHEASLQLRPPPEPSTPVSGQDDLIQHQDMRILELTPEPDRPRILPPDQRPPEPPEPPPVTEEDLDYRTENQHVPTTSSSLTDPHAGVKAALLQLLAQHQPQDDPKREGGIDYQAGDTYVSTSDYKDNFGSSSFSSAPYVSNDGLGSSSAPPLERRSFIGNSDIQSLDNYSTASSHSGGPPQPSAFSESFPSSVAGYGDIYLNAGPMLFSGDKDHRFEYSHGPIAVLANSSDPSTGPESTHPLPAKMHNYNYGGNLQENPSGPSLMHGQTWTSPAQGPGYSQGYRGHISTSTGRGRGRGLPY

Compound `O=C(NC1CCNCC1)c1n[nH]cc1NC(=O)c1c(Cl)cccc1Cl` [AT-7519] has an IC50 [1] of 1150 nM, an IC50 [2] of 2330 nM and an IC50 [3] of 1220 nM. For the same compound, the IC50 [4] was 1480 nM, the CI [5] was under 1 and the inhibition [6] was 24%. For the same compound, the inhibition [7] was 39.3%, the inhibition [8] was 31.4% and the inhibition [9] was 26.5%. It also gave an inhibition [10] of 68.7%, an inhibition [11] of 74.6% and an inhibition [12] of 76.9%. It also gave an inhibition [13] of 62.5%, an inhibition [14] of 56.8% and an inhibition [15] of 33.2%. For the same compound, the inhibition [16] was 85%, the inhibition [17] was 87% and the inhibition [18] was 6.49%.
